These results are taken from patent US6362171B1, “Aminoaklanoyl-linked conjugates of 2′,5′-oligoadenylate and antiviral uses thereof” (priority 1997, dated 2002).

Several values for one entry are separate records, joined by “and”; a condition that tells them apart may be missing. Equal values may be shown once.

The target of experiment [1] is recombinant human GST-RNase L (Homo sapiens, UniProt Q05823). The conditions noted are these: 10 μM compound; mean of duplicate.
The test system of a further experiment is HIV-1. The conditions noted are these: literature ref [11]; cited from earlier work.
A further experiment concerns the target T1, RNase L (Homo sapiens, UniProt Q05823).
T1 sequence (Q05823 1-741): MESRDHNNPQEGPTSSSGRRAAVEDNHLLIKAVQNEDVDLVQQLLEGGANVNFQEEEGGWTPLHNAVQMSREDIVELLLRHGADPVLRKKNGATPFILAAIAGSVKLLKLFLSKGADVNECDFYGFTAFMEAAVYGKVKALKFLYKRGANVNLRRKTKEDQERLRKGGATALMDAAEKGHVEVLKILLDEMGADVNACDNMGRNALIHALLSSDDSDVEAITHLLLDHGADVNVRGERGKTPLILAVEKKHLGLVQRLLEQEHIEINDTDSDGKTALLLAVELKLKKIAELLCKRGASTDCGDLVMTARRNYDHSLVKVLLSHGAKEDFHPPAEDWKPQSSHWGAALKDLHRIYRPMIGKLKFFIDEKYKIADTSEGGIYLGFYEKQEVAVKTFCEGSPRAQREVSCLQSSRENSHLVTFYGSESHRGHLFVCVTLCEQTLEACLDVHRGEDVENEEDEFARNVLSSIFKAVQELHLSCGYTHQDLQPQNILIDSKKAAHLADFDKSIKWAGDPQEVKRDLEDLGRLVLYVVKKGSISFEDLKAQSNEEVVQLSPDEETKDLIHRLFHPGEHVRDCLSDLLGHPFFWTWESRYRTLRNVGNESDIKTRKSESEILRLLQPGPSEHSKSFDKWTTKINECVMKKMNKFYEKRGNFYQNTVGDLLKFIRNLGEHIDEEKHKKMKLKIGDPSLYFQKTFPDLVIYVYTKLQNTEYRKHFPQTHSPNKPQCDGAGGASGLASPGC
The conditions noted are these: literature ref [10]; cited from earlier work.

Experiment [2] deals with T2, HIV-1 reverse transcriptase (HIV-1 RT) (Human immunodeficiency virus type 1 group M subtype B, UniProt P04585).
T2 construct: culture supernatant was removed and HIV-1 RT activity was assayed in triplicate; endogenous in cells; host or cells: Sup T1 cells infected with HIV-1; virion-associated enzyme in the culture supernatant
In words: Inhibition of HIV-1 reverse-transcriptase activity in culture supernatant of infected Sup T1 cells. The class given is cell-based. The conditions noted are these: for Inhibition of HIV-1 RT activity: 300 μM compound, Sup T1 cells treated 6 hours, supernatant at 96 hours post-infection, mean of duplicate.

The next experiment has as its system HIV-1 strain IIIB. Description: Infected centers assay: inhibition of HIV-1 induced syncytia formation (HIV-1 replication). The class given is cell-based. To be noted: 300 μM compound; PBL treated 2 hours, infected with HIV-1 IIIB, co-cultured with Sup T1 cells, read at 72 hours; control 144 syncytia/10^4 cells; mean of triplicate. As for the experimental part:
The infected centers assay as described by Henderson et al., Virology 1991, 182, 186, was used to measure the ability of the conjugated trimer core compounds of the invention to inhibit HIV-1 induced syncytia formation, an indicator of HIV-1 replication in T cells. […] The infected PBL were maintained in RPMI-1640 medium supplemented with 10% (v/v) heat-inactivated fetal calf serum at 37° C. in a humidified 5% CO2 in air atmosphere. After 48 hours, the cells were washed twice in Hank's balanced salt solution, serially diluted and seeded into multiple wells of a 96-well microtiter plate. Immediately, 2×10^5 exponentially growing Sup T1 cells were added to each well; Sup T1 cells readily form a syncytium with a cell which is productively infected with HIV-1. The wells were examined daily for the presence of syncytia, using a tissue culture microscope. The first signs of syncytia formation can be seen in 12 hours, with some complete syncytia developing by 24 hours. Final results were read at 72 hours. Each syncytium was counted as a single infected cell. The number of syncytia per seeded cell was determined and expressed as an infected center per infected cell. The number of syncytia per […] was 144 for the control Sup T1 cells.

For (2′-5′)d^3′(A-A-A) [CCC], in experiment [1], the “Activation of RNase L (percent hydrolysis of poly(U)-3′-[32P]pCp)” value came to 12%. Also, in the experiment with HIV-1, the HIV-1 production entry is listed as “inhibits HIV-1 production”. The “Activation of RNase L” value on RNase L is on record as “no activation”. For the same compound, in experiment [2], the “Inhibition of HIV-1 RT activity” value is on record as 96%. Also, the “Inhibition of syncytia formation (fold reduction in infection)” value (“Inhibition … (fold reduction in infection)” below) with HIV-1 strain IIIB came to 4.8 fold.

Take `Nc1nc2ncc(CNc3ccc(C(=O)N[C@@H](CCC(=O)NCCCCCC(=O)OC[C@H]4O[C@@H](n5cnc6c(N)ncnc65)[C@H](OP(=O)(O)OC[C@@H]5C[C@@H](OP(=O)(O)OC[C@@H]6C[C@@H](O)[C@H](n7cnc8c(N)ncnc87)O6)[C@H](n6cnc7c(N)ncnc76)O5)[C@@H]4O)C(=O)O)cc3)nc2c(=O)[nH]1` [compound 33]: the “Activation of RNase L (percent hydrolysis of poly(U)-3′-[32P]pCp)” value in experiment [1] is 35%. For the same compound, the “Inhibition of HIV-1 RT activity” value in experiment [2] was 81%. In addition, the “Inhibition … (fold reduction in infection)” value with HIV-1 strain IIIB was 7.5 fold and 7.2 fold.

Turning to `Nc1ncnc2c1ncn2[C@@H]1O[C@H](CO)C[C@H]1O` [Cordycepin], the inhibition (as a rule, how much of the control response was suppressed) at 300 µM in experiment [2] (SUP-T1, read-out: Inhibition of HIV-1 RT activity) was 13%. Besides, the “Inhibition … (fold reduction in infection)” value in the experiment on HIV-1 strain IIIB is listed as 1.5 fold.

For `Nc1nc2ncc(CNc3ccc(C(=O)N[C@@H](CCC(=O)NCCCCCC(=O)O[C@@H]4C[C@@H](COP(=O)(O)O[C@@H]5C[C@@H](COP(=O)(O)O[C@@H]6C[C@@H](CO)O[C@H]6n6cnc7c(N)ncnc76)O[C@H]5n5cnc6c(N)ncnc65)O[C@H]4n4cnc5c(N)ncnc54)C(=O)O)cc3)nc2c(=O)[nH]1` [compound 26], the “Inhibition of HIV-1 RT activity” value in experiment [2] is given as 45%. For the same compound, the “Inhibition … (fold reduction in infection)” value with HIV-1 strain IIIB is 2.4 fold.
